{
  "source": "patent US8664225B2",
  "about": "“1-[2-(2,4-dimethylphenylsulfanyl)-phenyl] piperazine as a compound with combined serotonin reuptake, 5-HT3 and 5-HT1A activity for the treatment of pain or residual symptoms in depression relating to sleep and cognition” (H. Lundbeck A/S, priority 2007, dated 2014)",
  "key": {"healthy subjects": {"tested_on": "healthy subjects", "experiment": "Clinical trials in healthy subjects, sexual dysfunction reported", "type": "in vivo, human", "settings": "of 114 healthy subjects exposed"}, "Rat 5-HT3 receptor": {"biological_target": "T1, Rat 5-HT3 receptor (Rattus norvegicus, UniProt P35563)", "T1 sequence (P35563 24-483)": "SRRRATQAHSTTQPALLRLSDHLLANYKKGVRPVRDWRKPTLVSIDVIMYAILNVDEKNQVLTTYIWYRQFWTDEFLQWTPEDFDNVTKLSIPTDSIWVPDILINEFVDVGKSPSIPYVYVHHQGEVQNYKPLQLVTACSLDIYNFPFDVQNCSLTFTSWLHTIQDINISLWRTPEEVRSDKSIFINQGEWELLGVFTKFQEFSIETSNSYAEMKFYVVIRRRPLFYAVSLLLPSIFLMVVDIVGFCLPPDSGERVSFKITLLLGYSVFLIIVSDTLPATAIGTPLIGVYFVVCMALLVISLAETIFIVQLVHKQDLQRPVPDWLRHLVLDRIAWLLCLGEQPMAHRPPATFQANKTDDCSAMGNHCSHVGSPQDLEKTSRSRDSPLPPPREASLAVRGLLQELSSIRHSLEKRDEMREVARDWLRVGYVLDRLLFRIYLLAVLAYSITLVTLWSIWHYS", "experiment": "Rat 5-HT3 receptor functional assay (antagonism)", "type": "biochemical"}, "patients [1]": {"tested_on": "patients", "experiment": "Clinical trial in patients, HAM-D sleep items 4, 5 and 6", "type": "in vivo, human", "settings": "5 and 10 mg daily against placebo, 6 weeks, approximately 100 patients per arm, HBr salt, FIGS. 23-25", "description": "(§1) The HAM-D scale may be used to assess the severity of depression in patients by means of a 24 items questionnaire. Item 4, 5 and 6 of the scale relate to how the patients sleep, i.e. is it easy to fall asleep (insomnia Early), does the patient wake up during the night (Insomnia Middle), and does the patient wake up early in the morning (Insomnia Late). The compound was tested at 5 and 10 mg daily against placebo with approximately 100 patients per arm."}, "[2]": {"biological_target": "Human serotonin transporter (Homo sapiens, UniProt P31645)", "sequence (P31645 whole entry)": "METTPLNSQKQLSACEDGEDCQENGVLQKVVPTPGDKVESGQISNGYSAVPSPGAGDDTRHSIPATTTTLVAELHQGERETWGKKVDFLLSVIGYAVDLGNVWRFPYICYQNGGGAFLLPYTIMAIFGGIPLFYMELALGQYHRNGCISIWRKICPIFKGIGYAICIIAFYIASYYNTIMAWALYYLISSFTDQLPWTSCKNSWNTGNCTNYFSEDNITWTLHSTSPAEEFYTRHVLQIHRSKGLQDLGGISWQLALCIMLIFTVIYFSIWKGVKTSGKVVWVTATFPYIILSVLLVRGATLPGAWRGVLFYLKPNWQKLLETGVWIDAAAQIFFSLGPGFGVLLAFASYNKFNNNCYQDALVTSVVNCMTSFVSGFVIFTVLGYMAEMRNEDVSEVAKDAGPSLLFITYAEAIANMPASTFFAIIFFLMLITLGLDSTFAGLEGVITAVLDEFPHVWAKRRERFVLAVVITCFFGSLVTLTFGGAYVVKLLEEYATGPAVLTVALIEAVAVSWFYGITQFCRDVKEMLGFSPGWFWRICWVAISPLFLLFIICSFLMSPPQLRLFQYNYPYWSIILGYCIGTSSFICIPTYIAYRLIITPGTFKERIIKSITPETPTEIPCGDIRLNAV", "experiment": "Human serotonin transporter, blockade of 5-HT uptake", "type": "biochemical"}, "human 5HT3 receptor": {"biological_target": "T2, human 5HT3 receptor (Homo sapiens, UniProt P46098)", "T2 sequence (P46098 24-478)": "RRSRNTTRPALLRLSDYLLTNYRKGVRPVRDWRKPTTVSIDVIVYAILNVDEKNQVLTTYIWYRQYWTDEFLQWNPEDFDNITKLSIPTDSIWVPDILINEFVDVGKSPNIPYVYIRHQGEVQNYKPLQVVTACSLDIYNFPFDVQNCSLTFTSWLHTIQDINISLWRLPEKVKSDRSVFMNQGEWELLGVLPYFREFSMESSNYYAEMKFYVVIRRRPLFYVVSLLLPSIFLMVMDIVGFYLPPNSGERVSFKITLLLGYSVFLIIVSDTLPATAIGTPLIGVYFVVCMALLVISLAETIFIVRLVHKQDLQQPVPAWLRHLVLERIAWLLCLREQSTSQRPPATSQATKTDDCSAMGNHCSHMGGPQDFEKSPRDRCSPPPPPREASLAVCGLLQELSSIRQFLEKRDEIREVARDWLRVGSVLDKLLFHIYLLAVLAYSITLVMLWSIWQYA", "experiment": "Human 5HT3 receptor in vitro binding assay"}, "mice": {"tested_on": "mice", "experiment": "Mouse intradermal formalin test", "type": "in vivo", "settings": "formalin 4.5% into hind paw", "description": "In this model, mice receive an injection of formalin (4.5%, 20 μl) into the left hind paw. The irritation caused by the formalin injection elicits a characteristic biphasic behavioural response, as quantified by the amount of time spent licking the injured paw. The first phase (˜0-10 minutes) represents direct chemical irritation and nociception, whereas the second (˜20-30 minutes) is thought to represent pain of neuropathic origin. The two phases are separated by a quiescent period in which behaviour returns to normal. The effectiveness of test compounds to reduce the painful stimuli is assessed by counting the amount of time spent licking the injured paw in the two phases."}, "Human 5-HT3A receptor": {"biological_target": "T3, Human 5-HT3A receptor (Homo sapiens, UniProt P46098)", "T3 sequence (P46098 24-478)": "T2 sequence (P46098 24-478)", "experiment": "Human 5-HT3A receptor functional assay", "type": "biochemical", "settings": "read-out: IC50 (antagonism in functional assay)"}, "patients [3]": {"tested_on": "patients", "experiment": "Clinical trial in patients, sexually related adverse effects reported", "type": "in vivo, human", "settings": "approximately 100 patients", "description": "as §1\nThis notion was further supported by clinical trials conducted in patients. The above mentioned clinical trial in patients also captured sexual adverse effects reported by the patients."}},
  "data": [
    {"compound": "Cc1ccc(Sc2ccccc2N2CCNCC2)c(C)c1", "note": "[compound I, 1-[2-(2,4-dimethylphenylsulfanyl)-phenyl]piperazine]", "values": [
      {"measurement": "number of subjects reporting sexual dysfunction", "setting": "healthy subjects", "value": "one"},
      {"measurement": "IC50", "setting": "Rat 5-HT3 receptor", "value": 0.2, "unit": "nM"},
      {"measurement": "sleep pattern, HAM-D items 4, 5 and 6 (Insomnia Early, Middle, Late)", "setting": "patients [1]", "value": "large and dose dependent improvement"},
      {"measurement": "IC50", "setting": "[2]", "value": 40, "unit": "nM"},
      {"measurement": "Ki", "setting": "human 5HT3 receptor", "value": 4.5, "unit": "nM"},
      {"measurement": "first phase scores (time spent licking the paw, 0-5 minutes)", "setting": "mice; FIG. 18a, highest dose", "value": "significant reduction"},
      {"measurement": "second phase pain scores (time spent licking the paw, 20-30 minutes)", "setting": "mice; FIG. 18b", "value": "significant reduction"},
      {"measurement": "IC50", "setting": "Human 5-HT3A receptor", "value": "~20", "unit": "nM"},
      {"measurement": "number of patients reporting Anorgasmia", "setting": "patients [3]; 5 mg daily", "value": 0},
      {"measurement": "number of patients reporting Ejaculation delayed", "setting": "patients [3]; 5 mg daily", "value": 0},
      {"measurement": "number of patients reporting Erectile dysfunction", "setting": "patients [3]; 5 mg daily", "value": 0},
      {"measurement": "number of patients reporting Libido decreased", "setting": "patients [3]; 5 mg daily", "value": 1},
      {"measurement": "number of patients reporting Loss of libido", "setting": "patients [3]; 5 mg daily", "value": 1},
      {"measurement": "number of patients reporting Orgasm abnormal", "setting": "patients [3]; 5 mg daily", "value": 0},
      {"measurement": "number of patients reporting Orgasmic sensation decreased", "setting": "patients [3]; 5 mg daily", "value": 0},
      {"measurement": "number of patients reporting Anorgasmia", "setting": "patients [3]; 10 mg daily", "value": 0},
      {"measurement": "number of patients reporting Ejaculation delayed", "setting": "patients [3]; 10 mg daily", "value": 0},
      {"measurement": "number of patients reporting Erectile dysfunction", "setting": "patients [3]; 10 mg daily", "value": 0},
      {"measurement": "number of patients reporting Libido decreased", "setting": "patients [3]; 10 mg daily", "value": 1},
      {"measurement": "number of patients reporting Loss of libido", "setting": "patients [3]; 10 mg daily", "value": 0},
      {"measurement": "number of patients reporting Orgasm abnormal", "setting": "patients [3]; 10 mg daily", "value": 0},
      {"measurement": "number of patients reporting Orgasmic sensation decreased", "setting": "patients [3]; 10 mg daily", "value": 0}
    ]}
  ]
}
